From patent US6262119A, “Methods of treating immunopathologies using polyunsaturated fatty acids” (priority 1996, dated 2001)
Like-named read-outs stand apart in the source and are kept apart here.

Tests used:
DTH induced by SRBC = experiment: Delayed type hypersensitivity against sheep red blood cells; assay type: in vivo, Female balb/c mice
Experimental: Delayed Type Hypersensitivity Against Sheep Red Blood Cells. Female balb/c mice were administered a priming dose of 100 μl of a 10% haematocrit of sheep red blood cells (SRBC) subcutaneously. Six days later mice were administered 25 μl of a 10% haematocrit of SRBC intradermally into the right hind footpad at time T-0 hrs. The subsequent anti-inflammatory response was evaluated by measuring the thickness of both hind footpads. Standard anti-inflammatory compounds, vehicle and test substances were administered intraperitonieally one hour prior to the SRBC challenge. PUFA compounds were administered in peanut oil.

[1] = tested on: peripheral blood mononuclear cell proliferation; experiment: Mononuclear cell proliferation assay (thymidine incorporation); assay type: cell-based, human; conditions: for % INHIBITION OF INDUCED PROLIFERATION AT 20 μM PUFA: mitogen-induced PBMC proliferation, one experiment in duplicate, representative of 4; for inhibition at 20 µM: Homo sapiens, read-out: % INHIBITION OF PROLIFERATION
Experimental: Mononuclear Cell Proliferation Assays
Mononuclear cells were separated from peripheral blood of normal human donors as described by Ferrante and Thong (1980, J. Immunol. Methods 36:109)). The mononuclear cells were resuspended in RPMI-1640 containing 20% human AB serum and placed into 96 well microtrays (50 μl per well, cell density 4×10^6 cells/ml). Fatty acid ([…]) was then added in 50ul and pre-incubated with the cells for 30 min at 37° C. in 5% CO2. Mitogen (PHA, ConA, PWM, Staph. aureus) was then added in 100 μl and the cells incubated for 66 hours at 37° C. in 5% CO2 before the addition of tritiated thymidine (1 μCi/well). After a total of 72 h in culture the cells were harvested and proliferation (thymidine incorporation) and supernatant's assayed for the presence of cytokines.

TNFα = experiment: PHA-induced TNFα production (ELISA of mononuclear cell supernatants); assay type: cell-based; conditions: Homo sapiens
Experimental: (§1) Fatty acid (66pmn) was then added in 50ul and pre-incubated with the cells for 30 min at 37° C. in 5% CO2. Mitogen (PHA, ConA, PWM, Staph. aureus) was then added in 100 μl and the cells incubated for 66 hours at 37° C. in 5% CO2 before the addition of tritiated thymidine (1 μCi/well). After a total of 72 h in culture the cells were harvested and proliferation (thymidine incorporation) and supernatant's assayed for the presence of cytokines.
(§2) Cytokine levels in culture supernatants were determined by specific ELISA using anti-cytokine antibodies. The following cytokine levels were determined TNFα, TNFβ, interferon-γ, IL-1β, IL-2.

psoriasis = conditions: drugs which block the cyclo-oxygenase pathway; cited from earlier work
interferon γ = experiment: PHA-stimulated interferon γ production (ELISA of mononuclear cell supernatants); assay type: cell-based; conditions: Homo sapiens, amino acid conjugated PUFA at 20 μM (Table 6), read-out: % inhibition of IFNγ production
Experimental: as §1, §2

[2] = PHA-induced TNFα, PUFA at 20 μM (Table 4), read-out: % INHIBITION OF CYTOKINE PRODUCTION (TNFα)
[3] = PHA-stimulated, amino acid conjugated PUFA at 20 μM (Table 6), read-out: % inhibition of TNFα production

Structure (SMILES)	inhibition at 20 µM (TNFα; [2])	inhibition at 20 µM (interferon γ)	inhibition at 20 µM (TNFα; [3])	other results
CCCCCC(O)/C=C/C=C\C/C=C\CCCCCOCC(=O)O (stereo not drawn) [16-OH-β-oxa 21:3 (n-6), Z, Z, E-(13-Hydroxy-6,9,1-octadecatienyloxy) acetic acid]	71%	–	–	% paw volume relative to control (DTH induced by SRBC; 10 mg/kg, 3 hours post challenge): 95.03%; % paw volume relative to control (DTH induced by SRBC; 10 mg/kg, 6 hours post challenge): 81.63%; % paw volume relative to control (DTH induced by SRBC; 10 mg/kg, 24 hours post challenge): 86.91%; % paw volume relative to control (DTH induced by SRBC; 50 mg/kg, 3 hours post challenge): 65.01%; % paw volume relative to control (DTH induced by SRBC; 50 mg/kg, 6 hours post challenge): 48.95%; % paw volume relative to control (DTH induced by SRBC; 50 mg/kg, 24 hours post challenge): 51.02%; % paw volume relative to control (DTH induced by SRBC; 100 mg/kg, 3 hours post challenge): 55.86%; % paw volume relative to control (DTH induced by SRBC; 100 mg/kg, 6 hours post challenge): 40.94%; % paw volume relative to control (DTH induced by SRBC; 100 mg/kg, 24 hours post challenge): 31.97%; % INHIBITION OF INDUCED PROLIFERATION AT 20 μM PUFA [1]: 50%
COc1ccc2c(c1)c(CC(=O)O)c(C)n2C(=O)c1ccc(Cl)cc1 [Indomethacin, reference compound]	–	–	–	% paw volume relative to control (DTH induced by SRBC; 30 mg/kg, 3 hours post challenge): 89.59%; % paw volume relative to control (DTH induced by SRBC; 30 mg/kg, 6 hours post challenge): 81.40%; % paw volume relative to control (DTH induced by SRBC; 30 mg/kg, 24 hours post challenge): 49.57%; exacerbations of psoriasis (psoriasis): induce exacerbations of psoriasis
C[C@]12C=CC(=O)C=C1CC[C@@H]1[C@@H]2[C@@H](O)C[C@@]2(C)[C@H]1CC[C@]2(O)C(=O)CO [Prednisolone, reference compound]	–	–	–	% paw volume relative to control (DTH induced by SRBC; 20 mg/kg, 3 hours post challenge): 58.35%; % paw volume relative to control (DTH induced by SRBC; 20 mg/kg, 6 hours post challenge): 60.12%; % paw volume relative to control (DTH induced by SRBC; 20 mg/kg, 24 hours post challenge): 100%
CCCCC/C=C\C/C=C\C/C=C\C/C=C\CCCC(=O)N[C@@H](CC(=O)O)C(=O)O [arachidonic acid-aspartic acid]	–	68.4%	38.3%	–
CCCCC/C=C\C/C=C\C/C=C\C/C=C\CCCC(=O)NCC(=O)O [arachidonic acid-glycine]	–	35.9%	26.6%	inhibition at 20 µM [1]: 8%
CC/C=C\C/C=C\C/C=C\C/C=C\C/C=C\C/C=C\CCC(=O)N[C@@H](CC(=O)O)C(=O)O [docosahexanoic acid-aspartic acid]	–	8.3%	17.4%	–
CC/C=C\C/C=C\C/C=C\C/C=C\C/C=C\C/C=C\CCC(=O)NCC(=O)O [docosahexanoic acid-glycine]	–	44%	16.2%	–
CC/C=C\C/C=C\C/C=C\C/C=C\C/C=C\CCCC(=O)N[C@@H](CC(=O)O)C(=O)O [eicosapentanoic acid-aspartic acid]	–	66.1%	17.1%	–
CC/C=C\C/C=C\C/C=C\C/C=C\C/C=C\CCCC(=O)NCC(=O)O [eicosapentanoic acid-glycine]	–	68.2%	11%	–
Cc1ccc(Cl)c(Nc2ccccc2C(=O)O)c1Cl [meclotenamate]	–	–	–	exacerbations of psoriasis (psoriasis): induce exacerbations of psoriasis
CCCCC1C(=O)N(c2ccccc2)N(c2ccccc2)C1=O [phenylbutazone]	–	–	–	exacerbations of psoriasis (psoriasis): induce exacerbations of psoriasis
CC/C=C\C/C=C\C/C=C\CCCCCCCC(=O)N[C@@H](CC(=O)O)C(=O)O [α-linolenic acid-aspartic acid]	–	0%	0%	inhibition at 20 µM ([1]; induced by PHA, PUFA at 20 μM): 7.3%
CC/C=C\C/C=C\C/C=C\CCCCCCCC(=O)NCC(=O)O [α-linolenic acid-glycine]	–	14.5%	29.3%	inhibition at 20 µM ([1]; induced by PHA, PUFA at 20 μM): 15.6%
CC/C=C\C/C=C\C/C=C\CCCCCCCCOCC(=O)O [β-oxa 21:3 (n-3), Z, Z, Z (9, 12, 15-Octadecatrienyloxy) acetic acid]	39%	–	–	–
CCCCC/C=C\C/C=C\C/C=C\CCCCCOCC(=O)O [β-oxa 21:3 (n-6), Z, Z, Z (6,9, 12-Octadecatrienyloxy) acetic acid]	38%	–	–	% INHIBITION OF INDUCED PROLIFERATION AT 20 μM PUFA [1]: 17%
CCCCC/C=C\C/C=C\C/C=C\C/C=C\CCCCOCC(=O)O [β-oxa 23:4 (n-6), Z, Z, Z, Z (5,8, 11, 14-Eicosatetraenyloxy) acetic acid]	25%	–	–	–
CC/C=C\C/C=C\C/C=C\CCCCCCCCSCC(=O)O [β-thia 21:3 (n-3), Z,Z,Z,Z-(9,12,15-Octadecatrienylthio)acetic acid]	17%	–	–	% INHIBITION OF INDUCED PROLIFERATION AT 20 μM PUFA [1]: 28%
CCCCC/C=C\C/C=C\C/C=C\CCCCCSCC(=O)O [β-thia 21:3 (n-6), Z,Z,Z,Z-(6,9, 12-Octadecatrienythio)acetica acid]	17%	–	–	–
CCCCC/C=C\C/C=C\C/C=C\C/C=C\CCCCSCC(=O)O [β-thia 23:4 (n-6), Z,Z,Z,Z-(5,8,11,14-Eicosatetraenylthio) acetic acid]	35%	–	–	–
CC/C=C\C/C=C\C/C=C\C/C=C\C/C=C\C/C=C\CCCSCC(=O)O [β-thia 25:6 (n-3)]	90%	–	–	% INHIBITION OF INDUCED PROLIFERATION AT 20 μM PUFA [1]: 97%
CCCCC/C=C\C/C=C\C/C=C\CCCCC(=O)N[C@@H](CC(=O)O)C(=O)O [γ-linolenic acid-aspartic acid]	–	0%	4.7%	inhibition at 20 µM ([1]; induced by PHA, PUFA at 20 μM): 15.4%
CCCCC/C=C\C/C=C\C/C=C\CCCCC(=O)NCC(=O)O [γ-linolenic acid-glycine]	–	0%	21.5%	inhibition at 20 µM ([1]; induced by PHA, PUFA at 20 μM): 29%
CC/C=C\C/C=C\C/C=C\CCCCCCCCSCCC(=O)O [γ-thia 22:3 (n-3), Z,Z,Z,Z-(9,12,15-Octadecatrienylthio)proponionic acid]	25%	–	–	–
CCCCC/C=C\C/C=C\C/C=C\CCCCCSCCC(=O)O [γ-thia 22:3 (n-6), Z,Z,Z,Z-(6,9,12-Octadecatrienylthio)propionic acid]	41%	–	–	–
CCCCC/C=C\C/C=C\C/C=C\C/C=C\CCCCSCCC(=O)O [γ-thia 24:4 (n-6), Z,Z,Z,Z-(5,8,11,14-Eicosatetraenylthio) propionic acid]	34%	–	–	–
